Measured values as given in paper PMC3138742 (PLoS ONE, 2011).

Tests used:
IGF1R = IGF1R (Homo sapiens, UniProt P08069); settings: cell-free
Experimental: (§1) The tyrosine kinase activities were determined using enzyme-linked immunosorbant assay (ELISA). The serine/threonine kinase activities were detected by Caliper Mobility Shift Assay on EZ Reader (Caliper Life Sciences, MA) according to the instruction.
(§2) The kinase domain of EGFR, ErbB-2, IGF1R, VEGFR2, FGFR1, PDGFRα, c-Src, c-Met, RON, c-Kit, EphA2 and EphB2 were expressed using the Bac-to-Bac^TM baculovirus expression system (Invitrogen, Carlsbad, CA, USA) and purified on Ni-NTA columns (QIAGEN Inc., Valencia, CA, USA). VEGFR1, PDGFRβ and c-Abl were purchased from Upstate Biotechnology Inc. (Charlottesville, Virginia, USA). […] EGF was purchased from R&D, Minneapolis, […]. Poly(Glu-Tyr)(4:1), the substrate of tyrosine kinase, was from Sigma-Aldrich Corp. St. Louis, MO, USA.
(§3) The tyrosine kinase activities were determined in 96-well ELISA plates (Corning, NY, USA) precoated with 20 μg/mL Poly (Glu,Tyr)4:1. First, 80 μL of 5 μM ATP solution diluted in kinase reaction buffer (50 mM HEPES pH 7.4, 20 mM MgCl2, 0.1 mM MnCl2, 0.2 mM Na3VO4, 1 mM DTT) was added to each well. […] Subsequently, the kinase reaction was initiated by the addition of purified tyrosine kinase proteins diluted in 10 μL of kinase reaction buffer solution. Experiments at each concentration were performed in duplicate. After incubation for 60 min at 37 °C, the plate was washed three times with phosphate buffered saline (PBS) containing 0.1% Tween 20 (T-PBS). Next, 100 μL anti-phosphotyrosine antibody (PY99, 1:500 dilution) diluted in T-PBS containing 5 mg/mL BSA was added. After 30 min incubation at 37 °C, the plate was washed three times as before. Horseradish peroxidase-conjugated goat anti-mouse IgG (100 μL) diluted 1:2000 in T-PBS containing 5 mg/ml BSA was added. The plate was reincubated at 37 °C for 30 min, and then washed with PBS.

EphA2 = EphA2 (Homo sapiens, UniProt P29317); settings: EphA2, cell-free
Experimental: as §1, §2, §3

SYK = SYK (Homo sapiens, UniProt P43405); settings: cell-free
Experimental: as §1, §2, §3

Flt-1 = Flt-1 (Homo sapiens, UniProt P17948); settings: Flt-1, cell-free
Sequence of Flt-1 (P17948 27-1338): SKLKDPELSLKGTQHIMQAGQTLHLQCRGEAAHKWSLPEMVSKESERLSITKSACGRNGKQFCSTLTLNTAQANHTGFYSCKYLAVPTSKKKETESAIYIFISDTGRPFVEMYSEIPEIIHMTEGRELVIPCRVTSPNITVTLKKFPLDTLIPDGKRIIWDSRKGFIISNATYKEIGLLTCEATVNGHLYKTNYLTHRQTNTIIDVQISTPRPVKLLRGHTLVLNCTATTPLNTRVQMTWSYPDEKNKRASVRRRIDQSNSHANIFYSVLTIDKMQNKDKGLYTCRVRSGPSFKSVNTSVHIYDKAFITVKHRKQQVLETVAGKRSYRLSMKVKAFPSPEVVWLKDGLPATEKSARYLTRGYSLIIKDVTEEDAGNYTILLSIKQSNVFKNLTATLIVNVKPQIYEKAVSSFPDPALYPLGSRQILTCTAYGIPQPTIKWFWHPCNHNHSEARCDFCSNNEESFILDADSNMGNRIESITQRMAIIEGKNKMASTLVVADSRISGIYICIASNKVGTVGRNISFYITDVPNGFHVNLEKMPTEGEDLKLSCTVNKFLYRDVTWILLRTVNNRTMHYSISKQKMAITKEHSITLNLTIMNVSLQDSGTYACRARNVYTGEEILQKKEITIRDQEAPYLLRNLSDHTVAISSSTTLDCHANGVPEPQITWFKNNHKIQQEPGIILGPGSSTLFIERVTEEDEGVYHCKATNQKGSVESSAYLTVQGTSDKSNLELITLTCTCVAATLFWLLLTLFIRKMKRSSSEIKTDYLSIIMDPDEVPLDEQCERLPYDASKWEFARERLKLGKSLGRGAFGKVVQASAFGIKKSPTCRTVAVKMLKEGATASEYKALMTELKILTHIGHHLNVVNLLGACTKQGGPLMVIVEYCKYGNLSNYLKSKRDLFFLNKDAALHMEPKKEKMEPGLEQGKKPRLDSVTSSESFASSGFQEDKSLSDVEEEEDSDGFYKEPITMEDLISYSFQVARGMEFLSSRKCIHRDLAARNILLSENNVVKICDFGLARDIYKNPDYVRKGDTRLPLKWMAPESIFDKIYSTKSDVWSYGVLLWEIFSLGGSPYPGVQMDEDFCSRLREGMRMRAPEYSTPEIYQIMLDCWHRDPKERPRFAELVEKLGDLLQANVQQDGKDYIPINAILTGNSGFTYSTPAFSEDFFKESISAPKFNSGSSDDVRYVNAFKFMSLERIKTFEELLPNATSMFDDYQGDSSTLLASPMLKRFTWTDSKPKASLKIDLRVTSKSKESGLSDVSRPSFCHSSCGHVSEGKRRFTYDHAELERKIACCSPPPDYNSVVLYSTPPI
Experimental: as §1, §2, §3

c-Kit = c-Kit (Homo sapiens, UniProt P10721); settings: cell-free
Experimental: as §1, §2, §3

PDGFRβ = PDGFRβ (Homo sapiens, UniProt P09619); settings: cell-free
Sequence of PDGFRβ (P09619 33-1106): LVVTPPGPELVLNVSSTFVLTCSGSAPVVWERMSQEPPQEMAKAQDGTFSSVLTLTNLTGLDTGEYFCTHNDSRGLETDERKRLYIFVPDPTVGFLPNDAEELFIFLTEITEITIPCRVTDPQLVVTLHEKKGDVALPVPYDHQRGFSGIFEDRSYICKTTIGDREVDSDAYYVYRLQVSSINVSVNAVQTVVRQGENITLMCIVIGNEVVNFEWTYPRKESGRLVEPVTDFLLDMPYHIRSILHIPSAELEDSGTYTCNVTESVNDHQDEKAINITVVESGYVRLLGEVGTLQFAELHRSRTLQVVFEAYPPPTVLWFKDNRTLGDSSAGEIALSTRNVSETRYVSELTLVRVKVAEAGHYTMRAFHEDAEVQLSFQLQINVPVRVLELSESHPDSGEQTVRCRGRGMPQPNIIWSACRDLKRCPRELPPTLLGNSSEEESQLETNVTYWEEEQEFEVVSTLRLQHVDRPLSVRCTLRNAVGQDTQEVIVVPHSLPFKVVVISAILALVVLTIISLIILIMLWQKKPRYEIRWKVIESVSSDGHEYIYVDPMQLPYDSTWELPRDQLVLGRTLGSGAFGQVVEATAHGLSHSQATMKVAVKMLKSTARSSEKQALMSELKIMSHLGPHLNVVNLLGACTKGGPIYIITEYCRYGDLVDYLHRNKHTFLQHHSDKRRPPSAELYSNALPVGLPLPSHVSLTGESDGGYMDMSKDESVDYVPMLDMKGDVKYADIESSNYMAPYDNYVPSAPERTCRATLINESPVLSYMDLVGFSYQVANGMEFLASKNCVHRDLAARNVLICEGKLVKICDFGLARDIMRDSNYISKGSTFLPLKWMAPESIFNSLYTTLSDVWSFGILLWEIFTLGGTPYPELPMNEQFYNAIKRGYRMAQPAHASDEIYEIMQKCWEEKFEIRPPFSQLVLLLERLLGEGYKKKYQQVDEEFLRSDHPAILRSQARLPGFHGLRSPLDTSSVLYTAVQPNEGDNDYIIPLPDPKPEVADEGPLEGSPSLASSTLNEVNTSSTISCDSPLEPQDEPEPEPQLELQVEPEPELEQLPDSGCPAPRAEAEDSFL
Experimental: as §1, §2, §3

FGFR1 = FGFR1 (Homo sapiens, UniProt P11362); settings: FGFR1, cell-free
Experimental: as §1, §2, §3

ErbB2 = ErbB2 (Homo sapiens, UniProt P04626); settings: ErbB2, cell-free; means ± SD
Sequence of ErbB2 (P04626 720-987 limits assumed): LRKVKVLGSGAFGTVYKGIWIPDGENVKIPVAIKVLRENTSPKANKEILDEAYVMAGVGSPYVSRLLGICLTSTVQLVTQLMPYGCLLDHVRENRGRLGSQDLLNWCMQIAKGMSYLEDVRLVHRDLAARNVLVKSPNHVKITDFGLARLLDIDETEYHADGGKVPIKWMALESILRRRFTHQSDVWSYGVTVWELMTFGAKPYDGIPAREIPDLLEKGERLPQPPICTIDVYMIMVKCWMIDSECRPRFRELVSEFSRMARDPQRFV
Experimental: as §1, §2, §3

EphB2 = EphB2 (Homo sapiens, UniProt P29323); settings: EphB2, cell-free
Sequence of EphB2 (P29323 621-884 limits assumed): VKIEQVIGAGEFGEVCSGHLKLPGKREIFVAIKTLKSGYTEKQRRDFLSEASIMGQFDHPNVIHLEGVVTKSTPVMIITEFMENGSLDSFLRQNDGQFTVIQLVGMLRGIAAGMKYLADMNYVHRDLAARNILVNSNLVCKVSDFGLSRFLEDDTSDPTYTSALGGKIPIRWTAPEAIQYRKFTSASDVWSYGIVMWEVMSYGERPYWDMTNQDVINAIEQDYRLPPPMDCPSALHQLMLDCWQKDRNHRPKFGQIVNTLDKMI
Experimental: as §1, §2, §3

c-Met = c-Met (Homo sapiens, UniProt P08581); settings: cell-free
Sequence of c-Met (P08581 1078-1345 limits assumed): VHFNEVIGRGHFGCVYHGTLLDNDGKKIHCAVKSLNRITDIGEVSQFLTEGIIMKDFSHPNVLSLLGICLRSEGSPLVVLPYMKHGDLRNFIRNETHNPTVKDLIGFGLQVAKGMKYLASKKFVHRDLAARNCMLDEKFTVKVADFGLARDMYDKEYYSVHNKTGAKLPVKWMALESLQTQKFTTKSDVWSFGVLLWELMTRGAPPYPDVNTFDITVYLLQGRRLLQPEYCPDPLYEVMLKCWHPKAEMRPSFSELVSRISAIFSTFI
Experimental: as §1, §2, §3

JAK2 = JAK2 (Homo sapiens, UniProt O60674); settings: JAK2, cell-free
Experimental: as §1, §2, §3

c-Src = c-Src (Homo sapiens, UniProt P12931); settings: cell-free
Sequence of c-Src (P12931 270-523 limits assumed): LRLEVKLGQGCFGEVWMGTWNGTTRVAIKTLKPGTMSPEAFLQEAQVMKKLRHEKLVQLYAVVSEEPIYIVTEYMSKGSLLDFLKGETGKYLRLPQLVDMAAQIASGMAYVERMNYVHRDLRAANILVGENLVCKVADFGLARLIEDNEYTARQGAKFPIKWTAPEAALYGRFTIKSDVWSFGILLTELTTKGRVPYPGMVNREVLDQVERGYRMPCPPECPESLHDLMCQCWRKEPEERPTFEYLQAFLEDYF
Experimental: as §1, §2, §3

Tie2 = Tie2 (Homo sapiens, UniProt Q02763); settings: Tie2, cell-free
Sequence of Tie2 (Q02763 23-1124): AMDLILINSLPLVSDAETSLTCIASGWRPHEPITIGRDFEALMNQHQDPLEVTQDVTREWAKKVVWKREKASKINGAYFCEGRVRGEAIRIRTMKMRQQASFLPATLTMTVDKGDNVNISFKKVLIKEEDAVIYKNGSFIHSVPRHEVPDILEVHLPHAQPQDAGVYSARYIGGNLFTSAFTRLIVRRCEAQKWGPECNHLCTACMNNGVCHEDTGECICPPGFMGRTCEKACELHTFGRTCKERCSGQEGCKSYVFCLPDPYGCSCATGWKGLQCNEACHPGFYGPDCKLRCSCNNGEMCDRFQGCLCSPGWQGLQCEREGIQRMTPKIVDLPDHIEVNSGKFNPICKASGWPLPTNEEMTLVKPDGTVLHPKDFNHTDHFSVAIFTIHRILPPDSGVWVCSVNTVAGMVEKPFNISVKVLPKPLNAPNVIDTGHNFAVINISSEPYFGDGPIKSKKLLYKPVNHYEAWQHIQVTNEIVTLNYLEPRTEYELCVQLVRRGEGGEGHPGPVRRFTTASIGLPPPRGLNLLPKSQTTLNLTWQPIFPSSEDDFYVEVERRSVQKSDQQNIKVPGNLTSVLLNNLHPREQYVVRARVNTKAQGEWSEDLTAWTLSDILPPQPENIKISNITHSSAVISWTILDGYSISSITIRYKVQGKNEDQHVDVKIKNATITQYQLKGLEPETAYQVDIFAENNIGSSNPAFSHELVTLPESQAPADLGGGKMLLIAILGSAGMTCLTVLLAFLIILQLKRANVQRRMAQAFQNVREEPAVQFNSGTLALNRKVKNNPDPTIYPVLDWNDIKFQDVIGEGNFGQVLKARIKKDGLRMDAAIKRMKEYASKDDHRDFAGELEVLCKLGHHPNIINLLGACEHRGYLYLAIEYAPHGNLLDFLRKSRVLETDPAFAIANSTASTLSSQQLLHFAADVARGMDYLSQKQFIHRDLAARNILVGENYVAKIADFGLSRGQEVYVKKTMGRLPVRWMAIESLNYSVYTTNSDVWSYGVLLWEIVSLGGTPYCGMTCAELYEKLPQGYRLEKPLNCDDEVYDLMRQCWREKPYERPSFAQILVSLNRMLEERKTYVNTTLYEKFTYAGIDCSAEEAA
Experimental: as §1, §2, §3

EGFR = EGFR (Homo sapiens, UniProt P00533); settings: cell-free, means ± SD
Sequence of EGFR (P00533 712-979 limits assumed): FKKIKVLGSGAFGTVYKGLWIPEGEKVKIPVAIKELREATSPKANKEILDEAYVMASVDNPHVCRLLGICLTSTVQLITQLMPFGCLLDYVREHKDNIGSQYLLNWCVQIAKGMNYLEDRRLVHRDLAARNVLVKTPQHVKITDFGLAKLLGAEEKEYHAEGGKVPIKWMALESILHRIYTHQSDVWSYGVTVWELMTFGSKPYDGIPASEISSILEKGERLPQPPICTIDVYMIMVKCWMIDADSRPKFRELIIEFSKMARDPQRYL
Experimental: as §1, §2, §3

Abl = Abl (Homo sapiens, UniProt P00519); settings: cell-free
Experimental: as §1, §2, §3

NIH3T3 parental cells = assay: Cell proliferation SRB assay; type: cell-based; settings: 72 h, compared with NIH3T3-EGFR T790M/L858R
Excerpt: SK-OV-3, BT474, MDA-MB-468, Calu-3, A-549, NCI-H23, NCI-H1975 and NIH3T3 cells were obtained from the American Type Culture Collection (Rockville, MD). HO-8910 cells were obtained from the cell bank of the Chinese Academy of Sciences. MCF-7 cells were obtained from the Japanese Foundation of Cancer Research. NIH3T3 cells that overexpressed EGFR T790M/L858R mutant (NIH3T3-EGFR T790M/L858R) were constructed and maintained in our laboratory. All cell lines were maintained in strict accordance with the supplier's instructions and established procedures.
Cell viability was determined using sulforhodamine B assay. IC50 values were determined based on the results of three independent experiments. […] Whole-cell lysates were assayed for total EGFR and phosphorylation of EGFR by immunoblotting. A representative anti-GAPDH immunoblot is shown as a loading control. […] Cell viability was determined using sulforhodamine B assay.
Cell proliferation was evaluated using the SRB (Sulforhodamine B) assay as previously described. Briefly, cells were seeded into 96-well plates and grown for 24 h. […] After cells were air-dried, protein-bound dye was dissolved in 150 μL of 10 mmol/L Tris base for 5 min and measured at 515 nm using a multiwell spectrophotometer (VERSAmax, Molecular Devices). […] The IC50 value was obtained by the Logit method and was determined from the results of at least 3 independent tests.

SK-OV-3 cells = assay: Anchorage-independent growth on soft agar; type: cell-based, human; settings: two weeks
Experimental: The culture was maintained at 37°C in a 5% CO2 atmosphere for two weeks. The average colony number was calculated and colonies were photographed. Columns, mean of triplicate samples; bars, SE. Significant differences were evaluated using the Student's test (*P<0.05; ** P<0.01). (TIF) Click here for additional data file. Anchorage-independent cell transformation assay. Cell transformation was detected in SK-OV-3 and A549 cells, respectively. […] The culture were maintained in a 37°C, 5% CO2 incubator for 1-2 weeks, and the cell colonies were scored using a microscope and the Image-Pro PLUS computer software program (Media Cybernetics, Silver Spring, MD). Data are shown as means ± SD of values from triplicate experiments and the asterisk (*) indicates a significant (*P<0.05, ** P<0.01) decrease in colony number compared to untreated control.

Question: What does the source list for `C=CC(=O)Nc1ccc2ncnc(Nc3ccc(OCc4cccc(F)c4)c(Cl)c3)c2c1` [AST1306]?
Answer: IC50 (IGF1R): > 10 µM; IC50 (EphA2): > 10 µM; IC50 (SYK): > 10 µM; IC50 (Flt-1): > 10 µM; IC50 (c-Kit): > 10 µM; IC50 (PDGFRβ): > 10 µM; IC50 (FGFR1): > 10 µM; IC50 (ErbB2): 0.003 ± 0.0015 µM; IC50 (EphB2): > 10 µM; IC50 (c-Met): > 10 µM; IC50 (JAK2): > 10 µM; IC50 (c-Src): > 10 µM; IC50 (Tie2): > 10 µM; IC50 (EGFR): 0.0005 ± 0.0002 µM; IC50 (Abl): > 10 µM; inhibition of cell growth (NIH3T3 parental cells): much less potent; anchorage-independent growth on soft agar (SK-OV-3 cells): dramatically inhibit the growth
